# In patent publication US20170312305A1, “PHARMACEUTICAL EXTRACTS AND USES THEREOF” (UNIVERSITY OF SALFORD ENTERPRISES LIMITED, priority 2014, published 2017):
# Experiments:
# MDANQ01 cells = assay: MTT cell viability assay, MDANQ01 breast cancer cells; type: cell-based; conditions: MDANQ01, 96 hours, cisplatinum 1-25 μM
# Experimental: (§1) The breast cancer cell MDA 468 and MDANQ01, K562 and human lymphoblastic cell line (MOLT-4) were grown in RPMI 1640 medium supplemented with 1% L-glutamine, 1% of 100 Units/ml penicillin and 0.1 mg/ml streptomycin and 10% inactivated FCS. While the […] cell line HeLa and fibroblast cell line 3T3 were grown in DMEM medium supplemented with 20% inactivated FCS, 1% L-glutamine, 1% of 100 units/ml penicillin & 0.1 mg/ml streptomycin. All cell lines were maintained in a humidified incubator with an atmosphere of 95% air and 5% CO2 at 37° C.
# (§2) Cell viability was determined by the MTT (3-(4,5 dimethylthiazol2-yl)-2,5 diphenyltetrazolium bromide) test method. […] The metabolic activity of each well was determined by the (MTT) assay and compared to those of untreated cells. […] Cell viability was determined based on mitochondrial conversion of 3[4,5-dimethylthiazol-2-yl] […] The plates were gently agitated until the colour reaction was uniform and the absorbance was measured at 570 nm using a multi-well plate reader, Sigma Plot 2000 software was used for data analysis. The cell viability effects from exposure of cells to each concentration of crude whelk GAGs, commercial GAGs and cisplatinum were analysed as percentages of the control cell absorbance, which were obtained from control wells plated in RPMI, 1% L-glutamate and 10% FCS media. […]
# MDA-468 cells = assay: MTT cell viability assay, MDA-468 breast cancer cells; type: cell-based; conditions: MDA-468, 96 hours, cisplatinum 1-25 μM
# Experimental: as §1, §2
compound,measurement,setting,value
N.N.[Cl][Pt][Cl] [cisplatinum],IC50,MDANQ01 cells,0.63 µM
same,IC50,MDA-468 cells,0.88 µM
